Where “and” joins values, the source holds several entries; their conditions need not be identical. Identical values can stand only once.
Assay: xn = mol fraction of the nth substance listed

CCCCCCCCCCO + CCCCCCC
viscosity [mPa·s], 101.33 kPa
Conditions	298.15 K	308.15 K
x1 = 0.0386	0.4346	0.3825
x1 = 0.0772	0.4872	0.4312
x1 = 0.1584	0.642	0.5562
x1 = 0.2472	0.8698	0.7324
x1 = 0.3368	1.225	1.034
x1 = 0.4264	1.647	1.331
x1 = 0.5326	2.338	1.903
x1 = 0.6364	3.29	2.7
x1 = 0.7498	5.08	3.93
x1 = 0.8055	5.926	4.829
x1 = 0.8688	7.145	5.938
x1 = 0.9331	8.722	6.788

CCCCCCCCCCCC + CCCCCCCC
Conditions	viscosity
298.15 K, 101.33 kPa, x2 = 0.1117	1.233 mPa·s
298.15 K, 101.33 kPa, x2 = 0.2101	1.138 mPa·s
298.15 K, 101.33 kPa, x2 = 0.3025	1.038 mPa·s
298.15 K, 101.33 kPa, x2 = 0.4085	0.9477 mPa·s
298.15 K, 101.33 kPa, x2 = 0.5069	0.8672 mPa·s
298.15 K, 101.33 kPa, x2 = 0.6088	0.7703 mPa·s
298.15 K, 101.33 kPa, x2 = 0.7035	0.71 mPa·s
298.15 K, 101.33 kPa, x2 = 0.804	0.6353 mPa·s
298.15 K, 101.33 kPa, x2 = 0.9048	0.5647 mPa·s
298.2 K, 100 kPa, x2 = 0.5	0.869 mPa·s
323.15 K, 100 kPa, x2 = 0.434	0.658 mPa·s and 0.657 mPa·s
323.15 K, 100 kPa, x2 = 0.743	0.502 mPa·s and 0.501 mPa·s

CCCCCCCCCCO + CCCCCCCC
298.15 K, 101.3 kPa
Conditions	viscosity [mPa·s]
x1 = 0.0592	0.601
x1 = 0.11	0.678
x1 = 0.1555	0.769
x1 = 0.2012	0.876
x1 = 0.2553	1.032
x1 = 0.303	1.194
x1 = 0.4085	1.665
x1 = 0.5085	2.311
x1 = 0.6109	3.244
x1 = 0.7126	4.541
x1 = 0.7879	5.827
x1 = 0.8535	7.233
x1 = 0.9129	8.795
x1 = 0.9391	9.583

CCOC(=O)OCC + CCCCCCCC
298.15 K, 101.3 kPa
Conditions	viscosity [mPa·s]
x1 = 0.0224	0.517
x1 = 0.0828	0.509
x1 = 0.1137	0.508
x1 = 0.1181	0.508
x1 = 0.1535	0.508
x1 = 0.1753	0.507
x1 = 0.3802	0.529
x1 = 0.4893	0.549
x1 = 0.5834	0.572
x1 = 0.6904	0.6
x1 = 0.8119	0.645
x1 = 0.8465	0.659
x1 = 0.8953	0.681
x1 = 0.9679	0.727

CCCCCCCCCCCC + CCCCCCCCCC
298.15 K, 101.33 kPa
Conditions	viscosity [mPa·s]
x2 = 0.1071	1.294
x2 = 0.2012	1.243
x2 = 0.3014	1.198
x2 = 0.4079	1.146
x2 = 0.5077	1.092
x2 = 0.6096	1.036
x2 = 0.7085	0.9801
x2 = 0.8052	0.9488
x2 = 0.9045	0.9028

CCCCCCCCCCO + CCCCCCCCCC
298.15 K, 101.3 kPa
Conditions	viscosity [mPa·s]
x1 = 0.0518	0.924
x1 = 0.1069	1.021
x1 = 0.1649	1.168
x1 = 0.2141	1.308
x1 = 0.2591	1.457
x1 = 0.3013	1.618
x1 = 0.4008	2.078
x1 = 0.5047	2.74
x1 = 0.6063	3.619
x1 = 0.6847	4.535
x1 = 0.8044	6.474
x1 = 0.8482	7.392
x1 = 0.8943	8.5
x1 = 0.9494	10.05

CCOC(=O)OCC + CCCCCCCCCCCC
298.15 K, 101.3 kPa
Conditions	viscosity [mPa·s]
x1 = 0.0152	1.301
x1 = 0.0779	1.228
x1 = 0.1327	1.18
x1 = 0.1841	1.133
x1 = 0.2993	1.047
x1 = 0.4701	0.942
x1 = 0.6163	0.86
x1 = 0.7539	0.793
x1 = 0.9071	0.745
x2 = 0.014	0.741

CCCCCCCCCCO + CCCCCCCCCCCCCCCC
100 kPa, x2 = 0.0921
Conditions	viscosity [mPa·s]
298.2 K	9.77
308.2 K	6.71
318.2 K	4.76

CC(C)[C@@H]1CC[C@@H](C)C[C@H]1O + CCCCCCCCCCO
Conditions	viscosity [mPa·s]
298.15 K, 101.33 kPa, x1 = 0.5	21.24

Reference: the CheMixHub viscosity set
